Experiment: Pharmacokinetics after single peroral administration of 5 mg rifalazil, fed and fasted
Type: in vivo, beagle dogs
Settings: dogs, liquid-filled vs microgranulated
Procedure: Pharmacokinetic parameters were determined following a single peroral administration of 5 mg of rifalazil in healthy male beagle dogs. The rifalazil was formulated either as a liquid-filled capsule of Example 3 or as a powder-filled capsule containing microgranulated rifalazil as described in U.S. Pat. No. 5,547,683.
Both formulations were administered under fed and fasted conditions. All animals were fasted overnight prior to dosing. Animals designated as “fed” were administered a blended combination of dog chow and water in a 1:3 ratio (e.g. 250 g chow and 750 g water) via oral gavage at a dose volume of 20 mL/kg within approximately 30 minutes prior to dosing and food was provided Ad-libitum after approximately 4 hours following dosing. Animals in “fasted” groups were not fed prior to dosing and food was withheld until after approximately 4 hours after dosing. […]
Pharmacokinetic endpoints and parameters were calculated by noncompartmental analysis (NCA) using WinNonlin®.
The pharmacokinetic parameters Tmax, Cmax, AUCt, AUC∞, T1/2 (elimination), and F (bioavailability) were calculated as well as the coefficient of variation (CV) in each. […]

- effect of changes in the formulation upon elimination half-life (T1/2): no effect
SMILES: CO[C@H]1/C=C/O[C@@]2(C)Oc3c(C)c(O)c4c(=O)c(c5oc6cc(N7CCN(CC(C)C)CC7)cc(O)c6nc-5c4c3C2=O)NC(=O)/C(C)=C\C=C\[C@H](C)[C@H](O)[C@@H](C)[C@@H](O)[C@@H](C)[C@H](OC(C)=O)[C@@H]1C [rifalazil, Rifalazil]

From patent US20050123602A1, “Rifalazil formulations” (priority 2003, published 2005)
